The record followed here is patent US20050197350A1, “Novel quinoline, tetrahydroquinazoline, and pyrimidine derivatives and methods of treatment related to the use thereof” (TAISHO PHARMACEUTICAL CO., LTD., priority 2003, published 2005).

pIC50: −log10 of the molar value. Where a name gives a salt, the structure may show the parent alone.

The target in one assay is MCH receptor (Homo sapiens, UniProt Q99705). The experiment in a line: High throughput functional screening FLIPR/FDSS6000 (intracellular Ca2+ evoked by MCH). It is filed as cell-based. The settings on record: FLIPR/FDSS, antagonist activity vs 50 nM MCH; class by percent of control at 10^−7 M or IC50; read-out: class. In outline:
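For antagonist testing, compound-treated cells (30 min, 37 °C) were stimulated with 50 nM MCH and intracellular Ca2+ followed by Fluo4 fluorescence on FLIPR/FDSS6000. Receptor was a constitutively active, non-endogenous MCH receptor; dye loading 4 μM Fluo4-AM, 1 h, 37 °C.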
Take `Cc1cnc(N[C@H]2CC[C@@H](C(=O)N[C@@H](C)c3ccccc3F)CC2)nc1N(C)C` [Example 3295, cis-4-{[4-(dimethylamino)-5-methylpyrimidin-2-yl]amino}-N-[(1S)-1-(2-fluorophenyl)ethyl]cyclohexanecarboxamide]: the pIC50 is below 6.70. Still for that read-out and setting: to `Cc1ccc(S(=O)(=O)c2ncccc2C(=O)N[C@H]2CC[C@@H](Nc3nc(C)cc(N(C)C)n3)CC2)cc1` [Example 3377, N-(cis-4-{[4-(dimethylamino)-6-methylpyrimidin-2-yl]amino}cyclohexyl)-2-[(4-methylphenyl)sulfonyl]nicotinamide] belongs 6.70 to 7.30; to `Cc1cnc(NC2CCC(C(=O)N[C@@H](C)c3ccccc3C(F)(F)F)CC2)nc1N(C)C` (stereo partly drawn) [Example 3300, 4-{[4-(dimethylamino)-5-methylpyrimidin-2-yl]amino}-N-{(1S)-1-[2-(trifluoromethyl)phenyl]ethyl}cyclohexanecarboxamide], above 7.30.

For `CNc1nc(N[C@H]2CC[C@@H](NC(=O)COc3cc(C(F)(F)F)nn3C)CC2)ncc1C` [Example 3362, N-(cis-4-{[5-methyl-4-(methylamino)pyrimidin-2-yl]amino}-cyclohexyl)-2-{[1-methyl-3-(trifluoromethyl)-1H-pyrazol-5-yl]oxy}acetamide], the pIC50 was below 6.70.

As to `Cc1cnc(N[C@H]2CC[C@@H](NC(=O)[C@@H]3C[C@H]3c3ccc(F)c(F)c3)CC2)nc1N(C)C` (relative stereo) [Example 3318, trans-2-(3,4-difluorophenyl)-N-(cis-4-{[4-(dimethylamino)-5-methylpyrimidin-2-yl]amino}cyclohexyl)-cyclopropanecarboxamide], the pIC50 was above 7.30.

The assay is the same for the next values; noted with them: FLIPR/FDSS, antagonist activity vs 50 nM MCH; class by percent of control at 10^−7 M or IC50; table after the classification; read-out: class.
In the case of `O=C(O)c1cccc(C(=O)N[C@H]2CC[C@@H](Nc3ccc4ccccc4n3)CC2)c1` [Example 3150, N-[cis-4-(Quinolin-2-ylamino)-cyclohexyl]-isophthalamic acid], the pIC50 was below 6.70. As to `CNc1ccnc(N[C@H]2CC[C@@H](NC(=O)c3ccc(F)c(F)c3)CC2)n1` [Example 3223, 3,4-Difluoro-N-[cis-4-(4-methylamino-pyrimidin-2-ylamino)-cyclohexyl]-benzamide-hydrochloride], the pIC50 was below 6.70. With `CN(C)c1cc(N[C@H]2CC[C@@H](CNC(=O)Nc3cccc(Cl)c3Cl)CC2)nc2ccccc12` [Example 3191, 1-(2,3-Dichloro-phenyl)-3-[cis-4-(4-dimethylamino-quinolin-2-ylamino)-cyclohexylmethyl]-urea hydrochloride], the pIC50 was 6.70 to 7.30.

As to `COc1ccnc(N[C@H]2CC[C@@H](NC(=O)c3ccc(F)c(F)c3)CC2)n1` [Example 3131, 3,4-Difluoro-N-[cis-4-(4-methoxy-pyrimidin-2-ylamino)-cyclohexyl]-benzamide hydrochloride], the pIC50 was below 6.70. `O=C(N[C@H]1CC[C@@H](Nc2ccc3ccccc3n2)CC1)c1cccc(Cl)c1` [Example 3035, 3-Chloro-N-[cis-4-(quinolin-2-ylamino)-cyclohexyl]-benzamide hydrochloride]: the pIC50 is above 7.30. For `O=C(N[C@H]1CC[C@@H](Nc2ccc3ccccc3n2)CC1)c1cc(F)cc(F)c1` [Example 3152, 3,5-Difluoro-N-[cis-4-(quinolin-2-ylamino)-cyclohexyl]-benzamide hydrochloride], the pIC50 was above 7.30. For the compound `Cc1cc(N[C@H]2CC[C@@H](NC(=O)c3cc(F)ccc3F)CC2)nc2ccccc12` [Example 3164, 2,5-Difluoro-N-[cis-4-(4-methyl-quinolin-2-ylamino)-cyclohexyl]-benzamide hydrochloride], the pIC50 was 6.70 to 7.30. Regarding `Cc1cc(N[C@H]2CC[C@@H](NC(=O)c3ccc(C(F)(F)F)nc3)CC2)nc2ccccc12` [Example 3186, N-[cis-4-(4-Methyl-quinolin-2-ylamino)-cyclohexyl]-6-trifluoromethyl-nicotinamide hydrochloride], the pIC50 is 6.70 to 7.30.
